Assay results taken from publication PMC6327852 (Journal of cellular physiology, 2016).

Columns and labels:
NPC1 and TIM1 = assay type: cell-based
HSP27 = HSP27 (Homo sapiens, UniProt P04792); experiment: Immuno-fluorescence of HSP27 expression in GBM cells; details: GBM5, GBM6, GBM12 cells, 0–3.0 μM, 3 h
Ebola virus = assay type: cell-based
[1] = test system: rabbit hemorrhagic disease virus (RHDV); experiment: Rabbit hemorrhagic fever virus studies; assay type: in vivo
[2] = test system: glucosidase I, glucosidase IIα, glucosidase IIβ; experiment: Immuno-fluorescence of glucosidases in GBM12 cells; assay type: cell-based; details: 2.0 μM, 6 h
HSP90 ATPase = experiment: ATPase activity of immuno-precipitated FLAG-tagged HSP90; details: 30 nM - 1 μM, 30 min at 37 °C
HSP70 ATPase = HSP70 ATPase (Homo sapiens, UniProt P0DMV8); experiment: ATPase activity of immuno-precipitated HSP70-GFP; details: 30 nM - 1 μM, 30 min at 37 °C
Chain of HSP70 ATPase (P0DMV8 whole entry): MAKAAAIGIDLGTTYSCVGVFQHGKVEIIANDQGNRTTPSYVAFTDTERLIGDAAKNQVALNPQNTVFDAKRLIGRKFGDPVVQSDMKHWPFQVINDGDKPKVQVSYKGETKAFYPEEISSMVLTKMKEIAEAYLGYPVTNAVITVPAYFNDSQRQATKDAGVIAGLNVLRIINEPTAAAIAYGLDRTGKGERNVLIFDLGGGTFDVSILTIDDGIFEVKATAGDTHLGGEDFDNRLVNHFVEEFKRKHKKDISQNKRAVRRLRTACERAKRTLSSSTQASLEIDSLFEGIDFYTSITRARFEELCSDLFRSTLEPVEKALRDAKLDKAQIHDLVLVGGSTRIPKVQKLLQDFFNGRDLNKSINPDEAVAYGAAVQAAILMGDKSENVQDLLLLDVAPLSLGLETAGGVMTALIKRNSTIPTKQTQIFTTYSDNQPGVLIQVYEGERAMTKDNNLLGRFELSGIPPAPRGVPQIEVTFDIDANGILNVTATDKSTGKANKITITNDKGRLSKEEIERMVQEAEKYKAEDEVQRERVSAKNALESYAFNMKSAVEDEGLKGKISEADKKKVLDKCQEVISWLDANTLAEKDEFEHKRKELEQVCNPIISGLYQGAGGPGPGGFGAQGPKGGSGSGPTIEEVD

[3] = test system: mTOR Serine 2448 phosphorylation; assay type: cell-based; details: GBM5 cells, single agent 2.0 μM, 6 h
Junin virus (JUNV) = assay type: cell-based
HSP90, GRP78, and HSP70 = experiment: Immuno-fluorescence detection of chaperones in fixed cells; details: HuH7 and HT1080, 0–3.0 μM ± sildenafil 2 μM, 2 h
[4] = test system: influenza A and B viruses; experiment: Influenza virus-mediated cell lysis, live/dead assay in MRC5 cells; assay type: cell-based, human

Chain of HSP27 (P04792 whole entry): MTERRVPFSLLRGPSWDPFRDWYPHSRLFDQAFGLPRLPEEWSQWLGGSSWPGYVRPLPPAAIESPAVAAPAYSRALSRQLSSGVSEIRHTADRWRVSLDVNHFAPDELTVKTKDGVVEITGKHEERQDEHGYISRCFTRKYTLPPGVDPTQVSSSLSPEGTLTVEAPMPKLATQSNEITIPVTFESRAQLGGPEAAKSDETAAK

| Compound | expression of Ebola virus receptors NPC1 and TIM1 in vitro (NPC1 and TIM1) | expression of HSP27 (HSP27) | Ebola virus replication in vitro (Ebola virus) | animals that had died ([1]; […], vehicle approximately 70% at 60 h, P < 0.05, 25 mg/kg) | liver damage assessed by H&E staining of liver sections ([1]; rabbits, RHDV, 25 mg/kg x4) | virus-induced increases in plasma ALT, LDH, and GGT levels ([1]; rabbits, RHDV, 25 mg/kg x4) | expression of virus protein VP60 mRNA in liver ([1]; rabbits, RHDV, at the time of animal nadir, quantitative RT-PCR) | expression of glucosidase I and glucosidase IIα [2] | expression of glucosidase IIβ [2] | effect on HSP90 ATPase activity (HSP90 ATPase) | effect on HSP70 ATPase activity (HSP70 ATPase) | mTOR Serine 2448 phosphorylation [3] | JUNV infected cells expressing viral nucleoprotein NP (Junin virus (JUNV)) | replication of different strains of JUNV (Junin virus (JUNV)) | presence in mouse brain tissue 48 h after dosing (48 h after dosing) | peak brain concentration (mouse, IV bolus 10 mg/kg) | time to cross the blood brain barrier after dosing (mouse, IV bolus 10 mg/kg) | detection of HSP90, GRP78, and HSP70 in fixed in situ cells (HSP90, GRP78, and HSP70) | influenza virus-mediated cell lysis / cell killing [4] |
| --- | --- | --- | --- | --- | --- | --- | --- | --- | --- | --- | --- | --- | --- | --- | --- | --- | --- | --- | --- |
| NCC(=O)Nc1ccc(-n2nc(C(F)(F)F)cc2-c2ccc3c(ccc4ccccc43)c2)cc1 [AR-12] | reduced the expression | reduced | suppressed the replication | approximately 30% | reduced obvious liver damage | significantly reduced | less expression | rapidly reduced the expression | did not impact | inhibitory effects | inhibitory effects | strongly reduced | drastically reduced | potently inhibited | still detectable | 2 µM | ≤ 5 min | rapid dose- and time-dependent reduction | reduced cell lysis / cell killing |
| Cc1ccc(Nc2nccc(N(C)c3ccc4c(C)n(C)nc4c3)n2)cc1S(N)(=O)=O [pazopanib] |  |  |  |  |  |  |  |  |  | inhibitory effects | inhibitory effects |  |  |  |  |  |  |  | reduced cell lysis / cell killing |
| CNC(=O)c1cc(Oc2ccc(NC(=O)Nc3ccc(Cl)c(C(F)(F)F)c3)cc2)ccn1 [sorafenib, reference compound] |  | reduced |  |  |  |  |  | rapidly reduced the expression | did not impact | inhibitory effects | inhibitory effects |  |  |  |  |  |  |  | reduced cell lysis / cell killing |
